Reference: PMC4867491 (Oncogene, 2015)
Like-named read-outs stand apart in the source and are kept apart here.

What was measured:
Assay type in all cases: cell-based, human
[1] = tested on: HeLa-C604Y; assay: Proliferation/colony formation assay; conditions: read-out: median IC50, three independent experiments
[2] = tested on: DLD-1-S611R; assay: Proliferation/colony formation assay; conditions: read-out: median IC50, three independent experiments
[3] = tested on: HCT-116-C604Y; assay: Proliferation/colony formation assay; conditions: read-out: median IC50, three independent experiments
[4] = tested on: HCT-116, DLD-1 and U2OS; conditions: read-out: IC50 (cell viability)
[5] = tested on: HeLa-C604F; assay: Proliferation/colony formation assay; conditions: read-out: median IC50, three independent experiments
[6] = tested on: HeLa-I598F; assay: Proliferation/colony formation assay; conditions: read-out: median IC50, three independent experiments
[7] = tested on: HeLa; assay: Proliferation/colony formation assay; conditions: read-out: median IC50; HeLa parental; three independent experiments
[8] = tested on: DLD-1; assay: Proliferation/colony formation assay; conditions: read-out: median IC50; DLD-1 parental; three independent experiments
[9] = tested on: HCT-116; assay: Proliferation/colony formation assay; conditions: read-out: median IC50; HCT-116 parental; three independent experiments
[10] = tested on: HCT-116-I531M; assay: Proliferation/colony formation assay; conditions: read-out: median IC50, three independent experiments
[11] = three cancer cell lines HCT-116, DLD-1 and U2OS, Supplementary Figures 2a-c

Cc1cc(N2CCOCC2)ccc1Nc1nc(NC2CCCCC2)c2[nH]cnc2n1 [MPI-0479605]
IC50 [1]: > 2 µM | IC50 [2]: > 2 µM | IC50 [3]: > 2 µM | IC50 [4, 11]: 0.063 to 0.153 µM | IC50 [5]: > 2 µM

CCc1cccc(CC)c1NC(=O)c1nn(C)c2c1CCc1cnc(Nc3ccc(C(=O)NC4CCN(C)CC4)cc3OC(F)(F)F)nc1-2 [NMS-P715]
IC50 [1]: > 2 µM | IC50 [3]: > 2 µM | IC50 [4, 11]: > 0.15 µM

c1nc2nc(Nc3ccc(N4CCOCC4)cc3)nc(NC3CCCCC3)c2[nH]1 [Reversine, reversine]
IC50 ([4]; Homo sapiens): 0.063 to 0.153 µM

AZ3146
IC50 [6]: 3.85 µM | IC50 [7]: 1.33 µM | IC50 [1]: > 5 µM | IC50 [2]: > 5 µM | IC50 [3]: > 5 µM | IC50 [8]: 0.719 µM | IC50 [9]: 0.56 µM | IC50 [10]: 3.06 µM | IC50 [5]: 2.74 µM
